Results taken from patent US12077503B2, “Substituted cyclic amides and their use as herbicides” (FMC CORPORATION, priority 2015, dated 2024).

How the values were obtained:
Format in all cases: in vivo
[1] = test system: Kochia (Kochia scoparia); experiment: Test A preemergence
Summary of the method: (§1)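 In a loam soil and sand blend, planted seeds got a preemergence directed soil spray, and young plants at the one- to two-leaf stage, 2–10 cm high, got a postemergence application; ~10 d greenhouse hold; injury rated visually, 0 = none, 100 = complete control.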

[2] = test system: barnyardgrass (Echinochloa crus-galli); experiment: Test A preemergence
Summary of the method: as §1

[3] = test system: giant foxtail (Setaria faberii); experiment: Test A preemergence
Summary of the method: as §1

[4] = test system: pigweed (Amaranthus retroflexus); experiment: Test A preemergence; details: preemergence
[5] = test system: ragweed (common ragweed, Ambrosia elatior); experiment: Test A preemergence; details: preemergence
Summary of the method: as §1

[6] = test system: ryegrass, Italian (Italian ryegrass, Lolium multiflorum); experiment: Test A preemergence; details: preemergence
Summary of the method: as §1

[7] = test system: Galium (catchweed bedstraw, Galium aparine); experiment: Test A postemergence; details: postemergence, 0 to 100 scale (0 no effect, 100 complete control)
Summary of the method: as §1

[8] = test system: Kochia (Kochia scoparia); experiment: Test A postemergence; details: postemergence, 0 to 100 scale (0 no effect, 100 complete control)
Summary of the method: as §1

[9] = test system: barnyardgrass (Echinochloa crus-galli); experiment: Test A postemergence; details: postemergence, 0 to 100 scale (0 no effect, 100 complete control)
Summary of the method: as §1

[10] = test system: blackgrass (Alopecurus myosuroides); experiment: Test A postemergence; details: postemergence, 0 to 100 scale (0 no effect, 100 complete control)
Summary of the method: as §1

[11] = test system: corn (Zea mays); experiment: Test A postemergence; details: postemergence, 0 to 100 scale (0 no effect, 100 complete control)
Summary of the method: as §1

[12] = test system: giant foxtail (Setaria faberii); experiment: Test A postemergence; details: postemergence, 0 to 100 scale (0 no effect, 100 complete control)
Summary of the method: as §1

[13] = test system: pigweed (Amaranthus retroflexus); experiment: Test A postemergence; details: postemergence, 0 to 100 scale (0 no effect, 100 complete control)
Summary of the method: as §1

[14] = test system: ragweed (common ragweed, Ambrosia elatior); experiment: Test A postemergence; details: postemergence, 0 to 100 scale (0 no effect, 100 complete control)
Summary of the method: as §1

[15] = test system: ryegrass, Italian (Italian ryegrass, Lolium multiflorum); experiment: Test A postemergence; details: postemergence, 0 to 100 scale (0 no effect, 100 complete control)
Summary of the method: as §1

[16] = test system: wheat (Triticum aestivum); experiment: Test A postemergence; details: postemergence, 0 to 100 scale (0 no effect, 100 complete control)
Summary of the method: as §1

[17] = test system: barnyardgrass (Echinochloa crus-galli); experiment: Test B flooded paddy test; details: Flood, 0 to 100 scale where 0 is no effect and 100 is complete control, 13 to 15 d
Summary of the method: (§2)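 Greenhouse paddy pots with 2-leaf stage plants received compound by direct addition to floodwater 3 cm deep, kept at that level. Scored visually at 13–15 d versus controls (0 no effect; 100 complete control).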

[18] = test system: ducksalad (Heteranthera limosa); experiment: Test B flooded paddy test; details: Flood, 0 to 100 scale where 0 is no effect and 100 is complete control, 13 to 15 d
Summary of the method: as §2

[19] = test system: rice (Oryra sativa); experiment: Test B flooded paddy test; details: Flood, 0 to 100 scale where 0 is no effect and 100 is complete control, 13 to 15 d
Summary of the method: as §2

[20] = test system: sedge, umbrella (small-flower umbrella sedge, Cyperus difformis); experiment: Test B flooded paddy test; details: Flood, 0 to 100 scale where 0 is no effect and 100 is complete control, 13 to 15 d
Summary of the method: as §2

[21] = 125 g ai/ha, Preemergence, visual injury after approximately 10 d, 0 to 100 scale where 0 is no effect and 100 is complete control
[22] = 500 g ai/ha, preemergence, 0 to 100 scale, 0 = no effect, 100 = complete control
[23] = 125 g ai/ha, visual rating after approx. 10 d, 0 to 100 scale where 0 is no effect and 100 is complete control
[24] = 500 g ai/ha, 0 to 100 scale, 0 = no effect, 100 = complete control
[25] = 125 g ai/ha, visual injury after approximately 10 d
[26] = 500 g ai/ha, visual injury, approx. 10 d
[27] = 125 g ai/ha, visual rating after approx. 10 d
[28] = 125 g ai/ha, preemergence, visual rating after approx. 10 d, 0 to 100 scale where 0 is no effect and 100 is complete control

Row | Structure (SMILES) | Plant response rating, Kochia [1, 22] | Plant response rating, Barnyardgrass [2, 22] | Plant response rating, Foxtail, Giant [3, 22] | Plant response rating, Pigweed [4, 23] | Plant response rating, Pigweed [4, 24] | Plant response rating, Ragweed [5, 23] | Plant response rating, Ragweed [5, 24] | Plant response rating, Ryegrass, Italian [6, 23] | Plant response rating, Ryegrass, Italian [6, 24] | Plant response rating, Galium [7, 25] | Plant response rating, Galium [7, 26] | Plant response rating, Kochia [8, 25] | Plant response rating, Kochia [8, 26] | Plant response rating, Barnyardgrass [9, 26] | Plant response rating, Blackgrass [10, 26] | Plant response rating, Corn [11, 25] | Plant response rating, Corn [11, 26] | Plant response rating, Foxtail, Giant [12, 25] | Plant response rating, Foxtail, Giant [12, 26] | Plant response rating, Pigweed [13, 25] | other results
1 | O=C1NCC(c2cccc(Br)c2)C1C(=O)Nc1cccc(F)c1F (racemic) [Compound 688] | 50 | 90 | 90 | 30 | 40 | 20 | 40 | 0 | 20 | 40 | 50 | 40 | 60 | 90 | 60 | 40 | 70 | 90 | 90 | 30 | Plant response rating, Kochia [1, 21]: 30; Plant response rating, Barnyardgrass [2, 21]: 90; Plant response rating, Foxtail, Giant [3, 21]: 90; Plant response rating, Barnyardgrass [9, 27]: 90; Plant response rating, Blackgrass [10, 27]: 50; Plant response rating, Pigweed [13, 26]: 50; Plant response rating, Ragweed [14, 25]: 30; Plant response rating, Ragweed [14, 26]: 50; Plant response rating, Ryegrass, Italian [15, 25]: 40; Plant response rating, Ryegrass, Italian [15, 26]: 60; Plant response rating, Wheat [16, 25]: 20; Plant response rating, Wheat [16, 26]: 70; Plant response rating, Barnyardgrass ([17]; 250 g ai/ha): 35; Plant response rating, Ducksalad ([18]; 250 g ai/ha): 100; Plant response rating, Rice ([19]; 250 g ai/ha): 0; Plant response rating, Sedge, Umbrella ([20]; 250 g ai/ha): 0
2 | O=C1NCC(c2cccc(OC(F)(F)C(F)F)c2)C1C(=O)Nc1ccccc1Cl (racemic) [Compound 699] | 70 | 90 | 90 | 30 | 50 | 0 | 70 | 20 | 40 | 50 | 60 | 30 | 50 | 80 | 60 | 30 | 60 | 50 | 80 | 20 | Plant response rating, Kochia [1, 28]: 0; Plant response rating, Barnyardgrass [2, 28]: 90; Plant response rating, Foxtail, Giant [3, 28]: 90; Plant response rating, Barnyardgrass [9, 25]: 50; Plant response rating, Blackgrass [10, 25]: 30; Plant response rating, Pigweed [13, 26]: 20; Plant response rating, Ragweed [14, 25]: 0; Plant response rating, Ragweed [14, 26]: 30; Plant response rating, Ryegrass, Italian [15, 25]: 0; Plant response rating, Ryegrass, Italian [15, 26]: 30; Plant response rating, Wheat [16, 25]: 0; Plant response rating, Wheat [16, 26]: 20; Plant response rating, Barnyardgrass ([17]; 500 g ai/ha): 60; Plant response rating, Ducksalad ([18]; 500 g ai/ha): 90; Plant response rating, Rice ([19]; 500 g ai/ha): 0; Plant response rating, Sedge, Umbrella ([20]; 500 g ai/ha): 0
3 | O=C1NCC(c2ccc(I)cc2)C1C(=O)Nc1ccc(F)cc1F (racemic) [Compound 701] | 0 | 90 | 90 | 0 | 0 | 0 | 0 | 0 | 0 | 0 | 0 | 0 | 0 | 70 | 0 | 0 | 0 | 60 | 70 | 0 | Plant response rating, Kochia [1, 28]: 0; Plant response rating, Barnyardgrass [2, 28]: 60; Plant response rating, Foxtail, Giant [3, 28]: 90; Plant response rating, Barnyardgrass [9, 25]: 60; Plant response rating, Blackgrass [10, 25]: 0; Plant response rating, Pigweed [13, 26]: 0; Plant response rating, Ragweed [14, 25]: 0; Plant response rating, Ragweed [14, 26]: 0; Plant response rating, Ryegrass, Italian [15, 25]: 0; Plant response rating, Ryegrass, Italian [15, 26]: 0; Plant response rating, Wheat [16, 25]: 0; Plant response rating, Wheat [16, 26]: 0; Plant response rating, Barnyardgrass ([17]; 500 g ai/ha): 65; Plant response rating, Ducksalad ([18]; 500 g ai/ha): 100; Plant response rating, Rice ([19]; 500 g ai/ha): 0; Plant response rating, Sedge, Umbrella ([20]; 500 g ai/ha): 0
